Nine molecules from patent US20260234165A1, “MACROCYCLIC COMPOUNDS, PREPARATION METHOD THEREFOR, AND USE THEREOF” (GENFLEET THERAPEUTICS (SHANGHAI) INC., priority 2004, published 2026) can be followed below.

Assay [1] relates to NCI-H441 cells. Briefly: 3D cell proliferation assay (CellTiter Glo-3D), NCI-H441. The assay is classed as cell-based, human. The following applies: medium with 2% FBS, read-out: H441 AP IC50. The text has this:
MIA PaCa-2 cells were purchased from ATCC, Cat. No. CRL-1420; AsPC-1 cells were purchased from ATCC, Cat. No. CRL-1682; NCI-H441 cells were purchased from ATCC, Cat. No. HTB-174: NCI-H1975 cells were purchased from ATCC. Cat. No. CRL-5908; DMEM medium was purchased from Gibco, Cat. No. 11995-065: RPMI-1040 medium was purchased from Gibco. Cat. No. H 18754093; FBS was purchased from Gibco, Cat. No. 10099-141C. penicillin, streptomycin double-antibiotic solution (PS) was purchased from Gibco, Cat. No. 15140-122; Horse serum was purchased from Gibco. Cat. No. 16050130: trypsin (containing EDTA) was purchased from Gibco, Cat. No. 25200-072; DMSO was purchased from VWRAMRESCO, Cat. No. 0231-500ML; 384-well cell culture plates were purchased from Corning, Cat. No. 3830; white-bottomed, opaque 384-well assay plates were purchased from Corning, Cat. No. 3570. CellTiter Glo-3D) kit was purchased from Promega. Cat. No. G9683; cell counter was purchased from CHEMOMETEC, model: NC-200: microplate reader was purchased from PerkinElmer, model: EnVision.
MIA PaCa-2, a human pancreatic cancer cell strain endogenously containing a KRAS^G12C mutation, was cultured in a complete medium containing DMEM+10% FBS+2.5% Horse serum+1% PS. AsPC-1, a human pancreatic cancer cell strain endogenously containing a […] mutation, was cultured in a complete medium containing RPMI-1640+10% FBS+1% PS. NCI-H441 cells, a human lung cancer cell strain endogenously containing a […] mutation, were cultured in a complete medium containing RPMI-1640+10% FBS+1% PS. NCI-H1975, a KRAS wild-type human lung cancer cell strain whose cell proliferation depends on KRAS activity, was cultured in a complete medium containing RPMI-1640+10% FBS+1% PS.
The cells were digested with trypsin (containing EDTA), collected in their respective low-serum complete media containing 2% FBS (for MIA Paca-2 cell culture: DMEM+2% FBS+0.5% Horse serum+1% PS), and counted. After the cell density was adjusted as required, 200 MIA PaCa-2 cells, 800 AsPC-1 cells, 800 NCI-H441 cells, or 400 NCI-H1975 cells per well were seeded into a 384-well cell culture plate, with the volume of the medium in each well being 45 μL. The cell culture plate was incubated in an incubator at 37° C. with 5% CO2, overnight. A series of 3.16-fold gradient dilutions of a 1000× compound stock solution were prepared with DMSO, and then diluted 100-fold with the complete medium containing 2% FBS described above to give 10- compound stock solutions. On the day after cell seeding, 5 μL of the 10- compound stock solution was added to each cell culture well. As a result, the final concentration of the compound in the cell culture well became 1×, and the DMSO content in the well was 0.1%. In addition to the compound-treated wells described above, cell-containing DMSO control wells (with 5 μL of the complete medium containing 1% DMSO added to each well) and cell-free medium control wells (containing 50 μL of the complete medium with 2% FBS) were also set. The culture plate was incubated in an incubator at 37° C. with 5% CO2 for another 5 days, and then 30 μL of CellTiter-Glo working solution was added to each well. The mixture was well mixed, incubated for 30 min, left to stand at room temperature for 30 min, and then transferred to a white-bottomed, opaque 384-well assay plate at 40 μL/well. The chemiluminescence values (RLU) were measured using a microplate reader, and the cell proliferation inhibition rate for each well was calculated: IR (%)=(RLUDMSO—RLUcompound)/(RLUDMSO−RLUblank)×100%, where RLUDMSO is the average RLU signal value from the DMSO control well samples, RLUblank is the average RLU signal value from the medium control well samples, and RLUcompound is the RLU signal value from the compound-treated well samples. […]
(In general: ATP-based viability assays read luminescence as a measure of living cells.)

Assay [2] deals with p-ERK in NCI-H441 cells (KRAS G12V mutation). Briefly: Cell p-ERK assay (HTRF) in NCI-H441 cells. The following applies: NCI-H441 cells, 3 h compound incubation, HTRF p-ERK T202/Y204, read-out: H441 p-ERK IC50. It counts as cell-based, human. Here is the method:
AsPC-1 cells were purchased from ATCC, Cat. No. CRL-1682: NCI-H441 cells were purchased from ATCC, Cat. No. HTB-174: RPMI-1640 medium was purchased from Gibco, Cat. No. I1875-093: FBS was purchased from Gibco, Cat. No. 10099-141C: penicillin/streptomycin double-antibiotic solution (PS) was purchased from Gibco, Cat. No. 15140-122: trypsin (containing EDTA) was purchased from Gibco, Cat. No. 25200-072; DMSO was purchased from VWRAMRESCO, Cat. No. 0231-500ML; 96-well cell culture plates were purchased from Corning, Cat. No. 3599: white-bottomed, opaque 96-well plates were purchased from Cisbio, Cat. No. 66PL96025; Advance ERK phospho-T202/Y204 kit was purchased from Cisbio, Cat. No. 64AERPEH; cell counter was purchased from CHEMOMETEC, model: NC-200; microplate reader was purchased from PerkinElmer, model: EnVision.
AsPC-1, a human pancreatic cancer cell strain endogenously containing a KRAS^G12D mutation, was cultured in a complete medium containing RPMI-1640+10% FBS+1% PS. NCI-H441, a human non-small cell lung cancer cell strain endogenously containing a KRAS^G12V mutation, was cultured in a complete medium containing RPMI-1640+10% FBS+1% PS.
The cells were digested with trypsin (containing EDTA), collected in their corresponding complete media, and counted. The density of the cell suspensions was adjusted with their corresponding complete media, and 10000 AsPC-1 cells or 20000 NCI-H441 cells per well were seeded into a 96-well cell culture plate, with the volume of the medium in each well being 80 μL.
The cell culture plate was incubated in an incubator at 37° C. with 5% CO2 overnight. A series of 3.16-fold gradient dilutions of a 1000- compound stock solution were prepared with DMSO, and then diluted 200-fold with the complete medium described above to give 5′ compound stock solutions. On the day after cell seeding, 20 μL of the 5× compound stock solution was added to each cell culture well. As a result, the final concentration of the compound in the cell culture well became 1×, and the DMSO content in the well was 0.1%. In addition to the compound-treated wells described above, cell-containing DMSO control wells were also set. A complete medium containing 0.5% DMSO was added at 20 μL/well. After the mixture was well mixed, the culture plate was incubated in the incubator at 37° C. with 5% CO2 for another 3 h. The medium was then removed from the culture wells, and 50 μL of cell lysis buffer (from Advance ERK phospho-T202,Y204 kit) was added to each well. The mixture was well mixed and incubated for 30 min. Then, 16 μL of the mixture was transferred to a white-bottomed, opaque 96-well assay plate, and separately, 16 μL of cell lysis buffer was added to additional wells (serving as blank wells) in the assay plate. After the transfer was completed, 4 μL of p-ERK HTRF antibody mixture (from Advance ERK phospho-T202/Y204 kit) was added to each well of the assay plate, followed by a 4-hour incubation. The HTRF signal values (RLU) were then measured using a microplate reader, and the inhibition rate of the compound against p-ERK levels was calculated as follows: IR (%)=(RLUDMSO−RLUcompound)/(RLUDMSO−RLUblank)×100%, where RLUDMSO is the average HTRF signal value from the DMSO control well samples, RLUblank is the average HTRF signal value from the blank well samples, and RLUcompound is the HTRF signal value from the compound-treated well samples. Using an XLfit software, the IR (%) values were plotted against the logarithm of the compound concentrations, and the dose-response curves were fitted using the four-parameter method to calculate the IC50 values.
(In TR-FRET formats the signal depends on donor and acceptor labels being close together.)

[3] abbreviates: Homo sapiens, NCI-H441, 3D cell proliferation (CellTiter Glo-3D).
The mark [4] stands for this setting: 3D cell proliferation (CellTiter Glo-3D).

Where two headings read alike, the source gives them in different places.

On to `[2H]C([2H])([2H])O[C@@H](C)c1ncc(N2CCN3CCOC[C@@H]3C2)cc1-c1c2c3cc(ccc3n1CC)-c1csc(n1)C[C@H](NC(=O)[C@H]1[C@H](C)[C@@H]1C)C(=O)N1CCC[C@H](N1)C(=O)OCC(C)(C)C2` (atropisomer, axis not shown; (Sa)) [Compound Z74, (1r,2R,3S)—N-((6^3S,4S,Z)-1^1-ethyl-(Sa)-1^2-(5-((S)-hexahydropyrazino[2,1-c][1,4]oxazin-8(1H)-yl)-2-((S)-1-(methoxy-d3)ethyl)pyridin-3-yl)-10,10-dimethyl-5,7-dioxo-6^1,6^2,6^3,6^4,6^5,6^6-hexahydro-1^1H-8-oxa-2(4,2)-thiazola-1(5,3)-indola-6(1,3)-pyridazinacycloundecaphane-4-yl)-2,3-dimethylcyclopropane-1-carboxamide], for which the 50% inhibitory concentration (IC50) in assay [1] (setting [3]) was 0.965 µM.
Turning to `CCn1c(-c2cc(C#CCN3CCCOCC3)cnc2[C@H](C)OC)c2c3cc(ccc31)-c1csc(n1)C[C@H](NC(=O)[C@H](C(C)C)N(C)[S@](C)(=O)=NC)C(=O)N1CCC[C@H](N1)C(=O)OCC(C)(C)C2` (single isomer, unassigned) [Compound Z912-1], the concentration for half-maximal inhibition (IC50) in assay [2] (Homo sapiens, NCI-H441, 3 h) was found to be 0.00261 µM; in assay [1] (setting [3]), 0.00513 µM.
For `CCn1c(-c2cc(N3CCN(C)CC3)cnc2[C@H](C)OC)c2c3cc(ccc31)-c1csc(n1)C[C@H](Nc1ccon1)C(=O)N1CCC[C@H](N1)C(=O)OCC(C)(C)C2` (atropisomer, axis not shown) [Compound Z459], the IC50 in assay [1] (setting [3]) was 0.0314 µM.
Regarding `CCn1c(-c2cc(C#CCN3CCN(C(=O)CO)CC3)cnc2C(C)OC)c2c3cc(ccc31)-c1csc(n1)CC(Nc1nnc3cc(C)ccn13)C(=O)N1CCCC(N1)C(=O)OCC(C)(C)C2` [Compound Z982, (6^3S,4S,Z)-1^1-ethyl-1^2-(5-(3-(4-(2-hydroxyacetyl)piperazin-1-yl)prop-1-yn-1-yl)-2-((S)-1-methoxyethyl)pyridin-3-yl)-10,10-dimethyl-4-((7-methyl-[1,2,4]triazolo[4,3-a]pyridin-3-yl)amino)-6^1,6^2,6^3,6^4,6^5,6^6-hexahydro-1^1H-8-oxa-2(4,2)-thiazola-1(5,3)-indola-6(1,3)-pyridazinacycloundecaphane-5,7-dione], the IC50 in assay [1] (setting [4]) is 0.00257 µM.
For `CCn1c(-c2cc(N3CCN(C)CC3)cnc2[C@H](C)OC)c2c3cc(ccc31)-c1csc(n1)C[C@H](Nc1nnc3n1CC(C)CC3)C(=O)N1CCC[C@H](N1)C(=O)OCC(C)(C)C2` (atropisomer, axis not shown; (Ra)) [Compound Z431], the concentration for half-maximal inhibition (IC50) in assay [2] (Homo sapiens, NCI-H441, 3 h) was 0.0444 µM; in assay [1] (setting [3]), 0.101 µM.
With `CCn1c(-c2cc(N3CCN(C)CC3)cnc2[C@H](C)OC)c2c3cc(ccc31)-c1csc(n1)C[C@H](N(C)C)C(=O)N1CCC[C@H](N1)C(=O)OCC(C)(C)C2` (atropisomer, axis not shown; (Ra)) [Compound Z458], in assay [1] (setting [3]), the IC50 worked out at 0.168 µM.
For `CCn1c(-c2cc(N3CCN(C)CC3)cnc2[C@H](C)OC)c2c3cc(ccc31)-c1csc(n1)C[C@H](Nc1nnc3n1CCCC3)C(=O)N1CCC[C@H](N1)C(=O)OCC(C)(C)C2` (atropisomer, axis not shown; (Ra)) [Compound Z423], the IC50 worked out at 0.0333 µM in assay [2] (Homo sapiens, NCI-H441, 3 h) and 0.0742 µM in assay [1] (setting [3]).
For `CCn1c(-c2cc(C#CCN3CCCOCC3)cnc2[C@H](C)OC)c2c3cc(ccc31)-c1csc(n1)C[C@H](NC(=O)[C@H](C(C)C)N(C)[S@@](C)(=O)=NC)C(=O)N1CCC[C@H](N1)C(=O)OCC(C)(C)C2` (single isomer, unassigned) [Compound Z912-2], the half-inhibitory concentration (IC50) came to 0.00341 µM in assay [2] and 0.00859 µM in assay [1] (setting [4]).
Turning to `CCn1c(-c2cc(OCCN3CC[S+]([O-])CC3)cnc2[C@H](C)OC)c2c3cc(ccc31)-c1csc(n1)C[C@H](NC(=O)[C@H]1[C@H](C)[C@@H]1C)C(=O)N1CCC[C@H](N1)C(=O)OCC(C)(C)C2` (atropisomer, axis not shown; (Sa)) [Compound Z600-1], the IC50 in assay [2] amounted to 0.0827 µM; in assay [1] (setting [4]), 0.0963 µM.

By IC50 is commonly meant the concentration that gives 50% inhibition.
